# Reference: US20260327211A1, “MODULATORS OF A POTASSIUM CHANNEL AND OF TRPV1 CHANNEL AND USES THEREOF” (Bsense Bio Therapeutics Ltd., priority 2023, published 2026)
# Key:
# CHO-K1 cells = test: In vitro micronucleus; type: cell-based; settings: Plate 2 without S9, 3 hours
# Description: (§1) The micronucleus assay was performed according to the regulatory guidelines. In brief, CHO-K1 cells were plated at 10000 cells/well in 3 plates and incubated In CHO-K1 growth medium (containing F12K, 10% FBS and 1% PS) overnight.
# (§2) As a control for the S9 treatment, plate No. 1, cells were treated with cyclophosphamide as a positive control, for 3 hours. For plate No. 2, without S9 treatment, cells were treated with mitomycin C as a positive control, compounds for 3 hours, and for plate No. 3, without S9 treatment, cells were treated with bleomycin sulfate as a positive control continuously for 24 hours.
# (§3) On the following day, 6 μg/mL of cytochalasin B were added to each well and plates were further incubated overnight. In the day after medium was replaced with a combined 10 μg/mL Hoechst dye solution and 0.5 μM calcein-AM in 100 μL warm DPBS for 30 minutes and the plates were scanned using CQ1 high-content analysis system.
# In vitro micronucleus = type: cell-based; settings: hamster, cho-k1 cells; Plate 2 without S9, 3 hours; read-out: Cytotoxicity (%) Absolute EC50
# Description: as §1, §2, §3
# [1] = test system: sodium and calcium channel; settings: cited from earlier work
# hKv7.2/3 = biological target: T1, hKv7.2/3 (Homo sapiens, UniProt O43525+O43526); test: Kv7.2/7.3 HCS, FLIPR potassium (thallium) assay, CHO/hKv7.2/3; type: cell-based; settings: read-out: Kv7.2/3 maximal opening vs. control
# T1 construct: host or cells: CHO
# Description: Cell culture: Chinese hamster ovary (CHO) cell-line cells with a constitutive expression of human Kv7.2/3 channels (B'SYS GmbH, Switzerland) were cultured in F-12 nutrient mixture (Biological Industries) supplemented with 10% fetal bovine serum (Biological Industries) and 1% penicillin-streptomycin (Biological Industries) in a humidified 5% CO2 incubator at 37° C. To maintain the stability of human Kv7.2/7.3 expression antibiotic selection was added (Puromycin 5 μg/ml).
# High content screen (HCS) using FLIPR Potassium Assay Kit: A FLIPR Potassium Assay Kit (R8222 FLIPR Potassium Assay Explorer Kits, Molecular Devices) was used with the CHO/hKv7.2/3 cell line to screen molecules against the hKv7.2/7.3 ion channel target. The assay exploits the permeability of thallium ions (Tl+) through potassium (K+) channels. In this assay, Tl+ indicator dye is used to produce a bright fluorescent signal upon the binding to Tl+ conducted through the potassium channels. The intensity of the Tl+ signal is proportional to the number of potassium channels in the open state. Therefore, it provides a functional indication of the potassium channel activity. To activate the voltage-gate potassium channels, the cells were stimulated with a mixture of K+ and Tl+ to depolarize the cell membrane. The fluorescence increase in the assay represents the influx of Tl+ into the cell specifically through the potassium channel, providing a functional read-out of hKv7.2/3 activity using a fluorescent plate reader coupled with injectors used to activate the channels.
# According to optimization process to achieve uniform and consistent screening conditions the following protocol was established: Cells were seeded in 384-well, black-walled, clear-bottomed Greiner #781091, at a density of 5000 cells per well 24 hours before the assay conductance and incubated overnight in their normal growth medium. On the experiment day the medium was replaced with HBSS, HEPES, and the test compound/vehicle (0.2% DMSO). Dye solution (prepared according to the manufacturer) was added to the plates, which were incubated for 1.5 h light-protected in room temperature. Tecan Spark reader plate injectors were primed with Tl+(1 mM Tl2SO4) or Tl++K+(1 mM Tl2SO4; 5 mM K2SO4) for channel activation and data correction. […] To calculate EC50 values, the data was fitted to sigmoidal regression using Prism GraphPad. The fitting was constrained to a minimum of 1 and a maximal response of about 3.6 unless a different maximal response could be clearly identified.
# [2] = test system: KCNQ2-5-type potassium channels; settings: cited from earlier work
# hKv7.4 = biological target: T2, hKv7.4 (Homo sapiens, UniProt P56696); settings: positive control; read-out: Known IC50, Kv7.4; cited from earlier work
# T2 construct: expressed in transfected cells; host or cells: CHO
# hKv7.3/5 = biological target: T3, hKv7.3/5 (Homo sapiens, UniProt O43525+Q9NR82); settings: positive control; read-out: Known IC50, Kv7.3/5; cited from earlier work
# T3 construct: expressed in transfected cells; host or cells: CHO
# rats [3] = test: Core body temperature; type: in vivo, rat; settings: 10 mg/kg
# Description: Core Body Temperature: Following two days of habituation to the measurement method, the body temperature was measured on study day for baseline values and then again post-dosing in the time points indicated in the figure. Body temperature was measured using a probe gently inserted into the animal anus using a corn oil lubricant (C8267, Sigma-Aldrich, IL).
# humans = settings: Rowbotham 2011; cited from earlier work
# rats [4] = test: Hot plate (53° C.); type: in vivo, rat; settings: 10 mg/kg PO, 2 and 4 hours post-dose
# Description: Hot Plate: Animals were placed on hot plate analgesia meter (IITC Life Science Inc., CA, USA) set to 53±1° C., and the time until the first escape response was observed was recorded. A response was considered when the animals lifted or licked their leg or performed kicking behavior.
# MIA-OA rats = test: Dynamic weight bearing in MIA-OA rats; type: in vivo, rat; settings: 100 mg/kg (naproxen 30 mg/kg), 6 hours post-dose
# Description: Monosodium iodoacetate-induced osteoarthritis (MIA-OA): The animals were anaesthetized using an Isoflurane+O2 mixture. Then 50 μl of MIA at a concentration of 60 mg/mL was injected into the right knee joint using a 30 G needle. On study days 13 and 14 following MIA injection, the animals' dynamic weight bearing and response to von Frey filaments were measured.
# Dynamic Weight Bearing (DWB): DWB study was performed using the DWB2 apparatus (Bioseb, Paris, France). The rats were placed in a transparent cage containing a matrix comprising around 2000 high-precision force sensors embedded in its floor where they were allowed to move freely. The force sensors measured the weight distribution on each of the four paws of the animal in grams. The animal was filmed from above using a high-definition camera, and the video feed was analyzed in real-time during the test using tracking software, allowing a precise analysis of the animal's posture and hind paws identification. Out of 5 minutes of animal behavior recording, a segment of 2 minutes was analyzed. Once the analysis was completed, the software provided the weight distribution of each hind paw as the main readout and the ratio between the injured and intact hind paws was then calculated.
# HepG2 cells = settings: positive control; read-out: Toxicity IC50; cited from earlier work
# T1 sequence (O43525 whole entry): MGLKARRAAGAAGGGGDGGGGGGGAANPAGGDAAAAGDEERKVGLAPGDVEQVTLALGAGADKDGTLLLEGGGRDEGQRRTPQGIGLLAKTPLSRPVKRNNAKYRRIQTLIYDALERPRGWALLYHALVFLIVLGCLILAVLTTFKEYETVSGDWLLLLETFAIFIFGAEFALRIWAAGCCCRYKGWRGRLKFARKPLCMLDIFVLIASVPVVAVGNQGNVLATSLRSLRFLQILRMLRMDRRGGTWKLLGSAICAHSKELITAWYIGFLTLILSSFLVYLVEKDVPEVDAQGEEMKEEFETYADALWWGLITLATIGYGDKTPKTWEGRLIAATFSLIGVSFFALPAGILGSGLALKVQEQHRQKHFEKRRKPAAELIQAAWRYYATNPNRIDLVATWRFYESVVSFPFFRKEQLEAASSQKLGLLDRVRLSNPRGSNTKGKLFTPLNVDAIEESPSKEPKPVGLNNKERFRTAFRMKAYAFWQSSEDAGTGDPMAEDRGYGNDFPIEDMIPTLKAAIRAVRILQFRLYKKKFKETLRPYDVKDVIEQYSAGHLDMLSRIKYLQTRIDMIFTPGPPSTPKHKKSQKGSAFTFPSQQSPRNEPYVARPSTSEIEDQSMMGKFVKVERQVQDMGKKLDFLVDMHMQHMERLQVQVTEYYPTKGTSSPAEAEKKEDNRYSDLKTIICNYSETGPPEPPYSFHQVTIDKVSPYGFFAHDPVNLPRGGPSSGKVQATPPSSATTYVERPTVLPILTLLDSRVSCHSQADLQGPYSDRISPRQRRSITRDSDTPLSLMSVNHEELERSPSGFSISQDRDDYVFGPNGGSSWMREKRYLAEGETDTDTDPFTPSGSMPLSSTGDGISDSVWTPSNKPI
# T1 sequence (O43526 whole entry): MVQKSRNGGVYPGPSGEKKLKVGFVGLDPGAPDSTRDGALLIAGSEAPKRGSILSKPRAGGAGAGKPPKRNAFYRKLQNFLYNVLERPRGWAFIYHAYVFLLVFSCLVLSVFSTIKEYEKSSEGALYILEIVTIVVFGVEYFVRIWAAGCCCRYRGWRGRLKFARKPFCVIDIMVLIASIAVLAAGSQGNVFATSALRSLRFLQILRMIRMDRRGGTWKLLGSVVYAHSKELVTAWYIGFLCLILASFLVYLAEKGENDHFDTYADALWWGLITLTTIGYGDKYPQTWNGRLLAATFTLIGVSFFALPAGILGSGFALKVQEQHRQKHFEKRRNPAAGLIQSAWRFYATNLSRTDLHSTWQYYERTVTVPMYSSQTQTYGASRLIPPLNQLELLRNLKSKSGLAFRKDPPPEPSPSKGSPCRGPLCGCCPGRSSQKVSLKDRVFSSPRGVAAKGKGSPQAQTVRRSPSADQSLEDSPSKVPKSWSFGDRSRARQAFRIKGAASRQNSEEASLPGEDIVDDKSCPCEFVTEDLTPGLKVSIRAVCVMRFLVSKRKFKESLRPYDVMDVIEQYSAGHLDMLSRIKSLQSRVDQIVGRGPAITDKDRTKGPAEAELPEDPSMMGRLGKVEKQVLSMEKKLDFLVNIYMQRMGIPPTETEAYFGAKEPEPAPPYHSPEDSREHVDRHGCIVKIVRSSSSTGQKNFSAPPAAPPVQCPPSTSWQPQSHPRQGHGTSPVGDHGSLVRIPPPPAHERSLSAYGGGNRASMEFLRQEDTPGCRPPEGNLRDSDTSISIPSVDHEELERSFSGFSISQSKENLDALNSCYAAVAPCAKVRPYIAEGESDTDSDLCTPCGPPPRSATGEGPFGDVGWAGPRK
# T3 sequence (O43525 whole entry): as the sequence (O43525 whole entry) above
# T3 sequence (Q9NR82 whole entry): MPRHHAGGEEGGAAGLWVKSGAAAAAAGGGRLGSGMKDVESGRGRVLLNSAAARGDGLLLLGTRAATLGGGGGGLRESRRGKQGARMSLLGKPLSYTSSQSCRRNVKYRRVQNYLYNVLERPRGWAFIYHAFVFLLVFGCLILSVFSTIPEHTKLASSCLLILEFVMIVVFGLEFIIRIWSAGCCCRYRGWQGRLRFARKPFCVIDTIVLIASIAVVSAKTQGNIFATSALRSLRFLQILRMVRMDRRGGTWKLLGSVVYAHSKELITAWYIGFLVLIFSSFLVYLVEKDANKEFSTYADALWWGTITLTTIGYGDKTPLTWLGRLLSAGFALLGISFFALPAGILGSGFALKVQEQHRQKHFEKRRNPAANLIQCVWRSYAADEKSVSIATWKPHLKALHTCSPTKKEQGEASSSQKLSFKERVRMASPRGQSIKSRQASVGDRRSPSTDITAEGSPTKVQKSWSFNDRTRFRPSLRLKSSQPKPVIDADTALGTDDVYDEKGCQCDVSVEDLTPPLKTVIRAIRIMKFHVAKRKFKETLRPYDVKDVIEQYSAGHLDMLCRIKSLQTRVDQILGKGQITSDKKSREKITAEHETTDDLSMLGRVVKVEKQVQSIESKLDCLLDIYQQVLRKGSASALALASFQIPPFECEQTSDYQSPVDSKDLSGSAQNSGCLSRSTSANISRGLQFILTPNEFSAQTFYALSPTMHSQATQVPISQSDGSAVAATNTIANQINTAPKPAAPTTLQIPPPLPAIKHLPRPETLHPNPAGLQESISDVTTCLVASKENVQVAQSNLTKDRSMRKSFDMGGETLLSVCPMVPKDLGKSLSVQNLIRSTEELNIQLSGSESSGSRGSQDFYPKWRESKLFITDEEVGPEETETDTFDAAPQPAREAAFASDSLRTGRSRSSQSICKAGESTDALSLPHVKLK
# T2 sequence (P56696 whole entry): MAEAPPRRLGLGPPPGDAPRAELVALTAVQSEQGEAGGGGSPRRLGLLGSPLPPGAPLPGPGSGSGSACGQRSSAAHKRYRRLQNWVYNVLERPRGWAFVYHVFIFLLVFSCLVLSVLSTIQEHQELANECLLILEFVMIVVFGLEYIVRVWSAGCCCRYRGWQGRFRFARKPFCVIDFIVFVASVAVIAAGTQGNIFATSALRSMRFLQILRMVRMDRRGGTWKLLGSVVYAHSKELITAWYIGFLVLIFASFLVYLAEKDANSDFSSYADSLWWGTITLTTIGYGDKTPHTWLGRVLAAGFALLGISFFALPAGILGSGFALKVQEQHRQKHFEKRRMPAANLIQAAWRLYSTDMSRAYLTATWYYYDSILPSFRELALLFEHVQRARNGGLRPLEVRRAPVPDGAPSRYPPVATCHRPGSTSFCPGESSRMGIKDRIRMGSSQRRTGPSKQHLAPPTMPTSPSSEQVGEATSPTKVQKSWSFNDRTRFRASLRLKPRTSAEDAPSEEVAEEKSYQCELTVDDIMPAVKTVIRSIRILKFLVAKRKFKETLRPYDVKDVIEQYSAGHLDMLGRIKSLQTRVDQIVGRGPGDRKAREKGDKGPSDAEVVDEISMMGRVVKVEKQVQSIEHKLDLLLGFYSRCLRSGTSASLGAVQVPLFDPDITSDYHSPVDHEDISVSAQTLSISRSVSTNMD
smiles,measurement,setting,value
"CO[C@@]12[C@H](COC(N)=O)C3=C(C(=O)C(C)=C(N)C3=O)N1C[C@@H]1N[C@@H]12 [Mitomycin C, reference compound]",Micronucleus response Absolute MEC,CHO-K1 cells,>16 µM
same,CC50 at 3 h,In vitro micronucleus,> 16 µM
"CCOC(=O)Nc1ccc(NCc2ccc(F)cc2)cc1N [Retigabine, N-(2-amino-4-(4-fluorobenzylamino)-phenyl)carbamic acid ethyl ester]",Other effects,[1],sodium and calcium channel blocking activity
same,Emax,hKv7.2/3,220%
same,Channel selectivity,[2],highly selective for KCNQ2-5-type potassium channels
same,IC50,hKv7.4,1.5 to 5 µM
same,IC50,hKv7.3/5,1.5 to 5 µM
"CC(C)(C)c1ccc2c(c1)CC[C@H]2NC(=O)Nc1cccc2[nH]ncc12 [ABT102, reference compound]",Increase of core body temperature vs vehicle,rats [3]; 6 hours post-dose,1.3 °C
same,Increase of core body temperature vs vehicle,rats [3]; 10 hours post-dose,0.8 °C
same,"Heat pain threshold, clinical",humans,increase heat pain threshold
same,Hot plate escape latency,rats [4],statistically significant increase in hot plate escape latency
"COc1ccc2cc([C@H](C)C(=O)O)ccc2c1 [naproxen, reference compound]",Reversal of weight bearing changes,MIA-OA rats,comparable reversal of weight bearing changes
NS(=O)(=O)OC[C@H]1C[C@@H](Nc2ccnc3cc(-c4cccc(SC(F)(F)F)c4)nn23)[C@H](O)[C@@H]1O [TAK243],IC50,HepG2 cells,~200 nM
